Literature values as cited in patent US6747011B1, “Antitumor drugs and methods” (A.P. Group, Inc., priority 2003, dated 2004).

Conditions: alkaline and physiological conditions

Question: With COC[C@@H](C[C@H]1O[C@@](O)([C@H](O)[C@@H]2C[C@H](OC)[C@@H](O)CC/C=C(C)/C=C/[C@@H](O[C@@H]3O[C@@H](C)[C@H](OC)[C@@H](O)[C@@H]3O)[C@H](C)/C=C(C)/C=C(C)/C=C(\C)C(=O)O2)[C@H](C)[C@@H](O)[C@H]1C)OC1C[C@](C)(O)[C@@H](O[C@H]2C[C@@H](OC)[C@H](O)[C@@H](C)O2)[C@H](C)O1 (stereo partly shown) [Apoptolidin] as the compound, how does the “stability, isomerization to isoapoptolidin” value read?
Answer: unstable under alkaline and physiological conditions and readily isomerizes to isoapoptolidin
